Series [1] concerns the target T1, Ba/F3-FGFR1-transfected cells (Homo sapiens, UniProt P11362).
T1 construct: BAF3-FGFR1 (MIN IL3) pIC50; other: minus IL3
Briefly: Ba/F3-FGFR1 (minus IL3) cellular proliferation assay, Alamar Blue. The class given is cell-based. The essentials:
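Read-out: resazurin reduction, fluorescence ex 540 nm/em 590 nm after 4 h Alamar Blue at 37 °C. Before that, FGFR1-transfected Ba/F3 cells (20000/well) sat with compound for 24 h in RPMI-1640/10% FBS/2 mM L-Gln.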

In another series the target is FGFR3 (h) (Homo sapiens, UniProt P22607). Put plainly: FGFR3 (enzymatic assay), TR-FRET. It is filed as biochemical. The note with it: read-out: FGFR 3 pIC50 (converted). The source says: Time-Resolved Fluorescence Resonance Energy Transfer (TR-FRET) signal (ex340 nm.
Sequence of FGFR3 (h) (P22607 23-806): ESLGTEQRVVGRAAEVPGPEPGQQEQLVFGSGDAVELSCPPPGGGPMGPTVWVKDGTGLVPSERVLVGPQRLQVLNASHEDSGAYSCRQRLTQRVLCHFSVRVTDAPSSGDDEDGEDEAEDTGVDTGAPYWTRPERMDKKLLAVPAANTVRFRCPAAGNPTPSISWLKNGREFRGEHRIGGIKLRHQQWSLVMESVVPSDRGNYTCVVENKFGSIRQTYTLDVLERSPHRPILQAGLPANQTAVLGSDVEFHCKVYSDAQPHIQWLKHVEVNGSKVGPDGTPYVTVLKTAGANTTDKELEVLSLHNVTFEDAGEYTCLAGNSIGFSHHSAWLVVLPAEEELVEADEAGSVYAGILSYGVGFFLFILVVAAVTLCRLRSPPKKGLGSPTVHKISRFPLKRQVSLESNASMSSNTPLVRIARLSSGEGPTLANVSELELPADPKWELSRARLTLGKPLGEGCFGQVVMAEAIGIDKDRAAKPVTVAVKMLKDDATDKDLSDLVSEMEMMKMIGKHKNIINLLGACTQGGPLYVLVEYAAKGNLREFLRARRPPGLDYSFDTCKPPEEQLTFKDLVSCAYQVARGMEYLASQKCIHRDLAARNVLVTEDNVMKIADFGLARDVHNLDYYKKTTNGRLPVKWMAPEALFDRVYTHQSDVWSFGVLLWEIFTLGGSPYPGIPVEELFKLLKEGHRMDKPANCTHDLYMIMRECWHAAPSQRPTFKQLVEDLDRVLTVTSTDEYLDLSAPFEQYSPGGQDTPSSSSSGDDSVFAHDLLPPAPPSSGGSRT
For a further series, the target named is FGFR4 (h) (Homo sapiens, UniProt P22455). Briefly: FGFR4 (enzymatic assay), TR-FRET. The note with it: FGFR 4 pIC50, enzymatic assay. The class given is biochemical.
Series [2] relates to Ba/F3-FGFR1-transfected cells. Put plainly: Ba/F3-FGFR1 (plus IL3) cellular proliferation assay, counterscreen with 10 ng/ml murine IL3. It is filed as cell-based. Particulars: read-out: BAF3-FGFR1 (PLUS IL3) pIC50 (converted). The essentials:
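Proliferation read-out: resazurin-based Alamar Blue fluorescence (540/590 nm) after 4 h, following 24 h compound treatment of 20000 Ba/F3-FGFR1 cells per well in 10% FBS RPMI at 37° C. IL3 counterscreen used the same protocol plus 10 ng/ml murine IL3.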
(The purpose of a counterscreen is to sort out artefacts and off-target activity.)

Series [3] addresses Ba/F3-FGFR4-transfected cells (Homo sapiens, UniProt P22455). Put plainly: Ba/F3-FGFR4 cellular proliferation assay, Alamar Blue. It is filed as cell-based. The procedure, abridged:
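Here, cells seeded at 20000 per well were treated 24 hours with compound, then given a 4-hour Alamar Blue incubation at 37° C before RFU measurement at ex. 540 nm and em. 590 nm.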
On the technique in general: Resazurin is reduced to fluorescent resorufin, in cell work by metabolically active cells.

For series [4], the system named is Ba/F3-KDR-transfected cells. Briefly: Ba/F3-KDR (plus IL3) cellular proliferation assay, counterscreen with 10 ng/ml murine IL3. The class given is cell-based. Particulars: read-out: BAF3-KDR (PLUS IL3) pIC50 (converted). The essentials: (§1)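 Cells grown with test compound at 37° C and 5% CO2 for 24 hours were given a resazurin/ferricyanide/ferrocyanide reagent for 4 hours before fluorescence (540/590 nm) was recorded.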

Series [5] concerns the target T2, Ba/F3-FGFR3-transfected cells (Homo sapiens, UniProt P22607).
T2 construct: BAF3-FGFR3 (MIN IL3) pIC50; other: minus IL3
Briefly: Ba/F3-FGFR3 (minus IL3) cellular proliferation assay, Alamar Blue. The class given is cell-based. The procedure, abridged:
(§2)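 Read-out: resazurin-based Alamar Blue fluorescence (ex 540 nm, em 590 nm) after a 4 h dye incubation. FGFR3-transfected Ba/F3 cells, 20000 per well, are exposed to compound for 24 h at 37° C in RPMI-1640/10% FBS. Plus-IL3 counterscreen adds 10 ng/ml murine IL3.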

A further series concerns the target KDR (h) (Homo sapiens, UniProt P35968). Put plainly: KDR (VEGFR2) (enzymatic assay), TR-FRET. It is filed as biochemical. The note with it: read-out: VEGFR 2 (KDR) pIC50 (converted). The procedure, abridged:
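Low-ATP (3 μM) TR-FRET kinase assay using 500 nM Btn-Flt3 peptide and 150 ng/ml enzyme, run 2 h at room temperature with 6 mM MnCl2 and 0.1 mM Na3VO4. Signal from Eu-anti-P-Tyr/SA-XL-665 is recorded in RFU.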

The next series addresses FGFR2 (h) (Homo sapiens, UniProt P21802). Briefly: FGFR2 (enzymatic assay), TR-FRET. It is filed as biochemical. Particulars: enzymatic assay; read-out: FGFR 2 pIC50 (converted). The procedure, abridged: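 hFGFR2 150 ng/ml; Btn-Flt3 500 nM; ATP 0.4 μM; 50 mM HEPES pH 7.5, 6 mM MnCl2, 1 mM DTT, 0.1 mM Na3VO4, 0.01% Triton-X-100; 1% DMSO final.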
Background: TR-FRET usually uses a lanthanide donor and a delayed reading to cut background.

In series [6] the target is T3, Ba/F3-KDR-transfected cells (Homo sapiens, UniProt P35968).
T3 construct: BAF3-KDR (MIN IL3) pIC50; other: minus IL3
T3 sequence (P35968 whole entry, change not shown): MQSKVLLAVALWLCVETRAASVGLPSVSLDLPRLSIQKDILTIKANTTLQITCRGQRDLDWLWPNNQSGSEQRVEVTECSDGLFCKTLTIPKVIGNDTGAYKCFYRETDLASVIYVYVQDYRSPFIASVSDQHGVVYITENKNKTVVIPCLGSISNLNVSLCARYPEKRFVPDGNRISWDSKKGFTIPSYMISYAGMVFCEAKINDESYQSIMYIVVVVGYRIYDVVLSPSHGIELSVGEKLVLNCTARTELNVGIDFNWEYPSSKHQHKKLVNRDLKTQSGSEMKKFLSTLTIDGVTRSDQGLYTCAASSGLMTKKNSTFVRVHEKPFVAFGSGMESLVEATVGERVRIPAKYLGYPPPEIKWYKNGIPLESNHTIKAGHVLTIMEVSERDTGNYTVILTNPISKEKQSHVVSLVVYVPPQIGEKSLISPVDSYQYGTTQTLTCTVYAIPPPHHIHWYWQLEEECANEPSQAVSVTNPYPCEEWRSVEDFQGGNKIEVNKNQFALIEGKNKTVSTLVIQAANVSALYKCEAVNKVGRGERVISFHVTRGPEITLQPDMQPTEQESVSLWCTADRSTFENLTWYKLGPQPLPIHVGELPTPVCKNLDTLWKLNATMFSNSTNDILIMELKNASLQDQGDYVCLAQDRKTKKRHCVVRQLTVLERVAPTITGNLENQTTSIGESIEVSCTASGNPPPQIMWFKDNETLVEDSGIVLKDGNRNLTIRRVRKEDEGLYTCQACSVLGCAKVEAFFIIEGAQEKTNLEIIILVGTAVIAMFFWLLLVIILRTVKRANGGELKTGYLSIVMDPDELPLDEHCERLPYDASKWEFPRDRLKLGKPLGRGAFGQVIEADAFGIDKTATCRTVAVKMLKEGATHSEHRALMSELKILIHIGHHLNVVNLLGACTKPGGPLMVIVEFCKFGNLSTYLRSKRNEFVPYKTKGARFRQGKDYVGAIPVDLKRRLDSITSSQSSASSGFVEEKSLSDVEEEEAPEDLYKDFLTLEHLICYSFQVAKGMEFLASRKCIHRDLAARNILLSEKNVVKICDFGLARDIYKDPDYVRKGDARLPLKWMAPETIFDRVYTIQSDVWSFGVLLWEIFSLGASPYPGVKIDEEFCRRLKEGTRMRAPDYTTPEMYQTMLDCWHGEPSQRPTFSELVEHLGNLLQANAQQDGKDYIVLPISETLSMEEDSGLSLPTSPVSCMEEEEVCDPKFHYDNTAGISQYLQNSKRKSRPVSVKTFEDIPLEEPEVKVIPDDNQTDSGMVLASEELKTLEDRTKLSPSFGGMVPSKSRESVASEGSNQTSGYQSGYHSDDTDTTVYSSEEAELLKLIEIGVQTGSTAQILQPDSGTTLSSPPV
Put plainly: Ba/F3-KDR (minus IL3) cellular proliferation assay, Alamar Blue. It is filed as cell-based. The procedure, abridged:
as §1

For series [7], the system named is Ba/F3-FGFR3-transfected cells. Briefly: Ba/F3-FGFR3 (plus IL3) cellular proliferation assay, counterscreen with 10 ng/ml murine IL3. It is filed as cell-based. Particulars: read-out: BAF3-FGFR3 (PLUS IL3) pIC50 (converted). The essentials: as §2
The target in a further series is FGFR1 (h) (Homo sapiens, UniProt P11362). Briefly: FGFR1 (enzymatic assay), TR-FRET. The class given is biochemical. The note with it: read-out: FGFR 1 pIC50 (converted).
Sequence of FGFR1 (h) (P11362 22-822): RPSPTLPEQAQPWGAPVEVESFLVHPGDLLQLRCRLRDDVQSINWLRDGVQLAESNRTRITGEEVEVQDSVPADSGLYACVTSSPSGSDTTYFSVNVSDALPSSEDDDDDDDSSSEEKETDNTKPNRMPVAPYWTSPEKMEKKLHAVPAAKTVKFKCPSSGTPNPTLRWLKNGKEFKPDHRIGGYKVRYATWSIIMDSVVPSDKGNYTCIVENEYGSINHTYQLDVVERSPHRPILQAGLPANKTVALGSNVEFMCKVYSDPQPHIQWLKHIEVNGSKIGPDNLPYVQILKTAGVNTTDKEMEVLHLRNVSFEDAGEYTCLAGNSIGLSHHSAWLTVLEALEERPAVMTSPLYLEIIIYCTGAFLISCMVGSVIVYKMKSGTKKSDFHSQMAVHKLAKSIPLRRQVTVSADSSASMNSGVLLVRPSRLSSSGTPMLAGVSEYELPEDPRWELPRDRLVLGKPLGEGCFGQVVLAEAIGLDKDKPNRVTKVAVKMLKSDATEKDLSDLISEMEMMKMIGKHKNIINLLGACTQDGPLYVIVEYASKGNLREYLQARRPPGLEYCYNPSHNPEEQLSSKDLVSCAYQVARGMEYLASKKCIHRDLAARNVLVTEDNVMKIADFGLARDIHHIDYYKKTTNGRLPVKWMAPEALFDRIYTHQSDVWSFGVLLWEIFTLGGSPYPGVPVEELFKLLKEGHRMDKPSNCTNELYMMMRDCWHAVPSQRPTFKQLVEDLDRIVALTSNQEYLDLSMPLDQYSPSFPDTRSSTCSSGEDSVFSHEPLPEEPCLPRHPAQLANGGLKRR

SMILES strings stand for the structures. Counter-ions that a name gives are not always drawn.

Sequence of Ba/F3-FGFR4-transfected cells (P22455 whole entry, change not shown): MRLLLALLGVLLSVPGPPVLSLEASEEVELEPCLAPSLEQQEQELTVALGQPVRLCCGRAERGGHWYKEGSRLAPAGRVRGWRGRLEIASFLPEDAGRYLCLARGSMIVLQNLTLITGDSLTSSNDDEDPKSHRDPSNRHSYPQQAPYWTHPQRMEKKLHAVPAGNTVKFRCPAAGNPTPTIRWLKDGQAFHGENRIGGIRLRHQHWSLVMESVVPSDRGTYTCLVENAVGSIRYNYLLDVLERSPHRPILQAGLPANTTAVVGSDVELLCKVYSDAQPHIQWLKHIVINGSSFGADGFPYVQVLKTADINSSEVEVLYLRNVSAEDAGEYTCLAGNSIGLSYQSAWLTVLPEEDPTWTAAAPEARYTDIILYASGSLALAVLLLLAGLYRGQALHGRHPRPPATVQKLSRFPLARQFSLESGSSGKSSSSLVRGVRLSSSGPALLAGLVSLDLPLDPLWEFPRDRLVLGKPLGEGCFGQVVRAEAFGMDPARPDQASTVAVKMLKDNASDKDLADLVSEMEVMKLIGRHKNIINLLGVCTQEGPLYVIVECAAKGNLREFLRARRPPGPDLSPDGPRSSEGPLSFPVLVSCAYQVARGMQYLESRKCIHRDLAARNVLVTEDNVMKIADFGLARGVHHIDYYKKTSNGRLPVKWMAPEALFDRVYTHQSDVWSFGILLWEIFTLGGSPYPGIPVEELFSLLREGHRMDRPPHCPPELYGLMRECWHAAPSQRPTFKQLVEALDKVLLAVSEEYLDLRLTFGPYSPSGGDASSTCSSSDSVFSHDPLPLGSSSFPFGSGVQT
Sequence of KDR (h) (P35968 20-1356): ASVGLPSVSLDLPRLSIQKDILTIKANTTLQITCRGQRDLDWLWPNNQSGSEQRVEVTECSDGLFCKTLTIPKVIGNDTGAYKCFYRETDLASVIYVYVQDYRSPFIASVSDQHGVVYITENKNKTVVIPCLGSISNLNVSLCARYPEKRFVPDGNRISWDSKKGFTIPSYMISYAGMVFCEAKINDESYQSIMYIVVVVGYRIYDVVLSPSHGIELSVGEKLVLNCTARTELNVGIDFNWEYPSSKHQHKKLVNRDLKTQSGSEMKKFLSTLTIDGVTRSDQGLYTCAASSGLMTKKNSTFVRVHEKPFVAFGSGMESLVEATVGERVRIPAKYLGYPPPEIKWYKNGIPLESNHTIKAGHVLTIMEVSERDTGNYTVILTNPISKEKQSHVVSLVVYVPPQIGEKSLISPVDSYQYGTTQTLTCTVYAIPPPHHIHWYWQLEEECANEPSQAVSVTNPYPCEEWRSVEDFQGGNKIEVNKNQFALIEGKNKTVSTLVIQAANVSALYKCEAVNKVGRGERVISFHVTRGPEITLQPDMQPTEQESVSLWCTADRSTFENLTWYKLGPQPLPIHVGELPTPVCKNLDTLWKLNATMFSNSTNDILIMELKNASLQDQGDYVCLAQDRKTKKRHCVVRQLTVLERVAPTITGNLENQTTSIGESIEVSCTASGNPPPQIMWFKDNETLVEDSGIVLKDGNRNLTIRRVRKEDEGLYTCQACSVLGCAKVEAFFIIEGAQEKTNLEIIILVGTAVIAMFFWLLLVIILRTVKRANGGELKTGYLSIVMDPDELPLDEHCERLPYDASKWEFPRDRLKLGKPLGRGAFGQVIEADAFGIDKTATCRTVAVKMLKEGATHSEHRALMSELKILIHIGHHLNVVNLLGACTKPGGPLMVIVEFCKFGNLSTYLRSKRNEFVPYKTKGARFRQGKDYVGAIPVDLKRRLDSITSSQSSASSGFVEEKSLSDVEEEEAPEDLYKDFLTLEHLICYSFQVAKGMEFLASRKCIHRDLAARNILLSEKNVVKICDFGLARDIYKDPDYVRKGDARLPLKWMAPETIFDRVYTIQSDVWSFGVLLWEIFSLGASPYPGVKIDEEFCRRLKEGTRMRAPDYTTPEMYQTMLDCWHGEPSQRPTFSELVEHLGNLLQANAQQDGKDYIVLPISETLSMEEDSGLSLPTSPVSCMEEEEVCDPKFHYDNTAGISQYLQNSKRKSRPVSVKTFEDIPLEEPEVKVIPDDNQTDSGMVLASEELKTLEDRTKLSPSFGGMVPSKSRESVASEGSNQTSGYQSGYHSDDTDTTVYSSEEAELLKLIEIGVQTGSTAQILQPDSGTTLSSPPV

In general, melting point refers to the temperature of the solid-liquid transition. For `COc1cc(/N=c2\ccc3ncc(-c4cnn(C)c4)nc3n2CC2CCCCO2)cc(OC)c1` (stereo not shown), the melting point came to 210 °C.
Same read-out and setting: under `COc1cc(OC)c(F)c(N(Cc2ncn(C3CNC3)n2)c2ccc3ncc(-c4cnn(C)c4)nc3n2)c1` stands 126 °C; under `CNCCN(c1ccc2ncc(-c3cn[nH]c3)nc2n1)c1c(F)c(OC)cc(OC)c1F` (as salt: HCl) (hydrate or solvate) [Compound 106], 250 °C; under `COc1cc(/N=c2\ccc3ncc(-c4cnn(C)c4)nc3n2Cc2cc[nH]n2)c(F)c(OC)c1` (as salt: HCl) (hydrate or solvate) [Compound 115], 130 °C.
In turn, `COc1cc(OC)c(F)c(N(Cc2ncc[nH]2)c2ccc3ncc(-c4cnn(C)c4)nc3n2)c1` (as salt: fumarate) [Compound 23] showed a melting point of 186 °C.
In turn, `COc1cc(OC)cc(N(Cc2ncc[nH]2)c2ccc3ncc(-c4cnn(C)c4)nc3n2)c1` (as salt: fumarate) [Compound 24] gave a melting point of 222 °C.
Still for that read-out and setting: to `COc1cc(OC)c(F)c(N(Cc2ncc[nH]2)c2ccc3ncc(-c4cnn(C)c4)nc3n2)c1` (as salt: hydrochloric acid salt) [Compound 23] belongs 216 °C; to `COc1cc(OC)cc(N(Cc2ncc[nH]2)c2ccc3ncc(-c4cnn(C)c4)nc3n2)c1` (as salt: hydrochloride) (hydrate or solvate) [Compound 24], greater than 260 °C.
Turning to `COc1cc(OC)cc(N(CCN2CCOCC2)c2ccc3ncc(-c4cnn(C)c4)nc3n2)c1` (as salt: hydrochloride) (hydrate or solvate) [Compound 146], the melting point was 143 °C.
As to `COc1cc(OC)c(F)c(N(Cc2ncc[nH]2)c2ccc3ncc(-c4cnn(C)c4)nc3n2)c1` (as salt: lactate) [Compound 23], the melting point stood at 118 °C.
For the compound `COc1cc(OC)c(F)c(N(Cc2ncc[nH]2)c2ccc3ncc(-c4cnn(C)c4)nc3n2)c1` (as salt: phosphate) [Compound 23], the melting point came to 175 °C.
`COc1cc(OC)cc(N(Cc2ncc[nH]2)c2ccc3ncc(-c4cnn(C)c4)nc3n2)c1` (as salt: phosphate) [Compound 24]: the melting point worked out at 253 °C.
`COc1cc(OC)c(F)c(N(Cc2ncc[nH]2)c2ccc3ncc(-c4cnn(C)c4)nc3n2)c1` (as salt: sulfate) [Compound 23] gave a melting point of 198 °C.
As to `COc1cc(OC)cc(N(Cc2ncc[nH]2)c2ccc3ncc(-c4cnn(C)c4)nc3n2)c1` (as salt: sulphate) [Compound 24], the melting point worked out at 266 °C.
`COc1cc(OC)cc(N(Cc2ncc[nH]2)c2ccc3ncc(-c4cnn(C)c4)nc3n2)c1` (as salt: tartrate) [Compound 24] yielded a melting point of 176 °C.
`CNCCN(c1ccc2ncc(-c3cnn(C)c3)nc2n1)c1c(F)c(OC)cc(OC)c1F` (hydrate or solvate) [Compound 3]: the melting point is 134 °C.
Take `COc1cc(OC)c(F)c(N(CCS(C)(=O)=O)c2ccc3ncc(-c4cnn(C)c4)nc3n2)c1` [Compound 226]: the “BAF3-FGFR1 (MIN IL3) pIC50” value in series [1] is given as 7.32. The IC50 on FGFR3 (h) was 1.12 nM; at FGFR4 (h), 3.02 nM; in series [2] it was greater than 10000 nM; in series [4], greater than 10000 nM; on KDR (h) it was 26.3 nM; at FGFR2 (h) it was 2.19 nM. The results for the IC50 (in series [7]; at FGFR1 (h)) were greater than 10000 nM and 0.912 nM, respectively. The “BAF3-FGFR4 pIC50” value in series [3] is 6.60. In series [5], the “BAF3-FGFR3 (MIN IL3) pIC50” value was roughly 7.54. Besides, the “BAF3-KDR (MIN IL3) pIC50” value in series [6] came to 5.92.
`COc1cc(OC)c(F)c(N(CC(N)=O)c2ccc3ncc(-c4cnn(C)c4)nc3n2)c1` [Compound 239]: the “BAF3-FGFR1 (MIN IL3) pIC50” value in series [1] was found to be 6.44. Moreover, the IC50 on FGFR3 (h) was 5.25 nM; at FGFR4 (h) it was 35.5 nM; in series [2], greater than 10000 nM; in series [4] it was greater than 10000 nM; at KDR (h), 148 nM; on FGFR2 (h), 7.94 nM. The IC50 in series [7] was greater than 10000 nM; on FGFR1 (h), 5.37 nM. In series [3], the “BAF3-FGFR4 pIC50” value is reported as 5.87. In addition, the “BAF3-FGFR3 (MIN IL3) pIC50” value in [5] worked out at 6.51. For the same compound, the “BAF3-KDR (MIN IL3) pIC50” value in series [6] came out at 5.27.
With `COc1cc(/N=c2\ccc3ncc(-c4cnn(C)c4)nc3n2CCNC(C)=O)c(F)c(OC)c1` [Compound 243], the “BAF3-FGFR1 (MIN IL3) pIC50” value in [1] is given as 7.85. The IC50 on FGFR3 (h) is 1.32 nM; against FGFR4 (h) it was 1.95 nM; in series [2], greater than 10000 nM; in [4], greater than 10000 nM; at KDR (h) it was 15.1 nM; on FGFR2 (h), 1.62 nM. The IC50 is greater than 10000 nM in series [7] and 0.977 nM on FGFR1 (h). For the same compound, the “BAF3-FGFR4 pIC50” value in series [3] stood at 7.14. Besides, in series [5], the “BAF3-FGFR3 (MIN IL3) pIC50” value is reported as roughly 8.13. Also, the “BAF3-KDR (MIN IL3) pIC50” value in series [6] is recorded as 6.00.
Regarding `CCN(c1ccc2ncc(-c3cnn(C)c3)nc2n1)c1c(F)c(OC)cc(OC)c1F` [Compound 256], the “BAF3-FGFR1 (MIN IL3) pIC50” value in [1] was 8.05. Further, the IC50 on FGFR3 (h) was 0.708 nM; on FGFR4 (h), 1.02 nM; in series [2] it was greater than 10000 nM; in [4], greater than 10000 nM; at KDR (h), 8.71 nM; on FGFR2 (h) it was 1.66 nM. The IC50 in series [7] is greater than 10000 nM; on FGFR1 (h), 0.49 nM. Further, the “BAF3-FGFR4 pIC50” value in series [3] worked out at 7.36. The “BAF3-FGFR3 (MIN IL3) pIC50” value in [5] is 8.16. Also, the “BAF3-KDR (MIN IL3) pIC50” value in series [6] was 6.16.
`COc1cc(OC)c(F)c(N(Cc2nnc(NCCO)o2)c2ccc3ncc(-c4cnn(C)c4)nc3n2)c1` [Compound 283]: in [1], the “BAF3-FGFR1 (MIN IL3) pIC50” value is 5.18. The IC50 at FGFR3 (h) was 5.13 nM; against FGFR4 (h), 21.4 nM; in series [2], greater than 10000 nM; in series [4], greater than 10000 nM; on KDR (h), 105 nM; on FGFR2 (h), 5.13 nM. Besides, the results for the IC50 (in series [7]; at FGFR1 (h)) were greater than 10000 nM and roughly 7.08 nM, respectively. Besides, the “BAF3-FGFR4 pIC50” value in series [3] is listed as less than 5. Also, the “BAF3-FGFR3 (MIN IL3) pIC50” value in series [5] is on record as 5.26. Moreover, the “BAF3-KDR (MIN IL3) pIC50” value in series [6] is less than 5.
